Laboratory results reported in ChEMBL document CHEMBL4673220, “Synthesis of new coumarin tethered isoxazolines as potential anticancer agents” (Bioorg Med Chem Lett, 2018).
Calls of active or inactive are those of the source. The calls are words filed in the database; no cut-off is given here.

What was measured:
[1] = system: UACC-903; test: Antiproliferative activity against human UACC-903 cells assessed as reduction in cell viability at 0.5 to 200 uM measured after 72 hrs by MTS assay; type: functional, cell-based; conditions: dose 0.5-200 µM
[2] = Cytotoxicity against human FF2441 cells assessed as reduction in cell viability at 0.2 to 100 uM measured after 72 hrs by MTS assay; type: cell-based; conditions: ff2441, 72 h, dose 0.2-100 µM
[3] = system: UACC-903; test: Antiproliferative activity against human UACC-903 cells assessed as reduction in cell viability at 0.5 to 200 uM by MTS assay; type: functional, cell-based; conditions: dose 0.5-200 µM, TDE = time-dependent effect
[4] = system: UACC-903; test: Antiproliferative activity against human UACC-903 cells assessed as reduction in cell viability measured after 72 hrs by MTS assay; type: functional, cell-based; conditions: for IC50: UACC-903, 72 h
[5] = system: Chorioallantoic membrane; test: Antiangiogenic activity in chicken fertilized egg chorioallantoic membrane assessed as inhibition of secretion of VEGF-like factors; type: functional; conditions: Gallus gallus, Embryo
[6] = system: Chorioallantoic membrane; test: Antiangiogenic activity in chicken fertilized egg chorioallantoic membrane assessed as inhibition of expression of VEGF-like factors; type: functional; conditions: Gallus gallus, Embryo
[7] = system: Chorioallantoic membrane; test: Antiangiogenic activity in chicken fertilized egg chorioallantoic membrane assessed as inhibition of VEGF165-induced vascularization incubated for 2 days by digital camera photography analysis; type: functional; conditions: Gallus gallus, Embryo, time 2.0 day
[8] = system: Ehrlich; test: Antitumor activity against mouse EAT cells implanted in ip dosed Swiss albino mouse assessed as suppression of peritoneal angiogenesis at […] administered on day 7, 9 and 11 post implantation and measured on day 12 by Hematoxylin and eosin staining based assay; type: functional, organism-based; conditions: time 3.0 day
[9] = system: Ehrlich; test: Antitumor activity against mouse EAT cells implanted in ip dosed Swiss albino mouse assessed as induction of apoptosis causing apoptotic body formation administered on day 7, 9 and 11 post implantation and measured on day 12 by Giemsa staining based light microscopy; type: functional, organism-based; conditions: dose 100.0 mg/kg, time 3.0 day
[10] = system: Ehrlich; test: Antitumor activity against mouse EAT cells implanted in ip dosed Swiss albino mouse assessed as induction of apoptosis causing membrane blebbing administered on day 7, 9 and 11 post implantation and measured on day 12 by Giemsa staining based light microscopy; type: functional, organism-based; conditions: dose 100.0 mg/kg, time 3.0 day
[11] = system: Ehrlich; test: Antitumor activity against mouse EAT cells implanted in ip dosed Swiss albino mouse assessed as induction of apoptosis causing shrinkage of cells administered on day 7, 9 and 11 post implantation and measured on day 12 by Giemsa staining based light microscopy; type: functional, organism-based; conditions: dose 100.0 mg/kg, time 3.0 day
[12] = system: Ehrlich; test: Antitumor activity against mouse EAT cells implanted in ip dosed Swiss albino mouse assessed as induction of apoptosis causing plasma membrane degradation administered on day 7, 9 and 11 post implantation and measured on day 12 by Giemsa staining based light microscopy; type: functional, organism-based; conditions: dose 100.0 mg/kg, time 3.0 day
[13] = system: Ehrlich; test: Antitumor activity against mouse EAT cells implanted in ip dosed Swiss albino mouse assessed as increase in mouse survival at 100 mg/kg, ip administered on day 7, 9 and 11 post implantation and measured after 35 days relative to control; type: functional; conditions: time 35 day
[14] = system: Ehrlich; test: Antitumor activity against mouse EAT cells implanted in ip dosed Swiss albino mouse assessed as decrease in ascitic cell viability administered on day 7, 9 and 11 post implantation and measured on day 12 by tryphan blue assay; type: functional, organism-based; conditions: dose 100.0 mg/kg, time 3.0 day
[15] = system: Ehrlich; test: Antitumor activity against mouse EAT cells implanted in ip dosed Swiss albino mouse assessed as decrease in ascitic fluid administered on day 7, 9 and 11 post implantation and measured on day 12; type: functional, organism-based; conditions: dose 100.0 mg/kg, time 3.0 day
[16] = system: Ehrlich; test: Antitumor activity against mouse EAT cells implanted in ip dosed Swiss albino mouse assessed as tumor regression administered on day 7, 9 and 11 post implantation and measured on day 12; type: functional, organism-based; conditions: time 3.0 day
[17] = Toxicity in Swiss albino mouse implanted with mouse EAT cells assessed as decrease in body weight at 100 mg/kg, ip administered on day 7, 9 and 11 post implantation and measured on day 12; type: organism-based; conditions: in vivo, 72 h, time 3 day
[18] = system: Ehrlich; test: Antitumor activity against mouse EAT cells implanted in Swiss albino mouse assessed as tumor suppression at 100 mg/kg, ip administered on day 7, 9 and 11 post implantation and measured on day 12 relative to control; type: functional; conditions: 72 h, time 3 day

Compound	Activity [1]	Activity [2]	Activity [3]	Activity [4]	IC50 [4]	also measured
COc1cccc(C2=NOC(COc3ccc4c(C)cc(=O)oc4c3)C2)c1 (configuration not stated)	inactive	Non-Toxic				
COc1ccc(C2=NOC(COc3ccc4c(C)cc(=O)oc4c3)C2)cc1 (configuration not stated)			Tde	Dose-dependent effect	8.8 µM	
Cc1cc(=O)oc2cc(OCC3CC(c4ccc(F)cc4)=NO3)ccc12 (configuration not stated)	inactive	Non-Toxic				
Cc1cc(=O)oc2cc(OCC3CC(c4c(F)cccc4Cl)=NO3)ccc12 (configuration not stated)			Tde	Dose-dependent effect	4.5 µM	
Cc1cc(=O)oc2cc(OCC3CC(c4cccc(F)c4)=NO3)ccc12 (configuration not stated)	inactive	Non-Toxic				
Cc1cc(=O)oc2cc(OCC3CC(c4ccc(Cl)cc4)=NO3)ccc12 (configuration not stated)	inactive	Non-Toxic				
Cc1cc(=O)oc2cc(OCC3CC(c4ccc(Br)cc4)=NO3)ccc12 (configuration not stated)	inactive	Non-Toxic				
Cc1cc(=O)oc2cc(OCC3CC(c4ccccc4Cl)=NO3)ccc12 (configuration not stated)			Tde	Dose-dependent effect	9.2 µM	
COc1cc(C2=NOC(COc3ccc4c(C)cc(=O)oc4c3)C2)cc(OC)c1OC (configuration not stated)	inactive	Non-Toxic				
Cc1cc(=O)oc2cc(OCC3CC(c4ccc5ccccc5c4)=NO3)ccc12 (configuration not stated)	inactive	Non-Toxic				
Cc1cc(=O)oc2cc(OCC3CC(c4ccc(C(F)(F)F)cc4)=NO3)ccc12 (configuration not stated)	inactive	Non-Toxic				
COc1ccc(C2=NOC(COc3ccc4c(C)cc(=O)oc4c3)C2)cc1OC (configuration not stated)			Tde	Dose-dependent effect	10.5 µM	Activity [5]: Active; Activity [6]: Active; Activity [7]: Active; Activity [8]: Active; Activity [9]: Active; Activity [10]: Active; Activity [11]: Active; Activity [12]: Active; fold change (FC) [13]: 2; Activity [14]: Active; Activity [15]: Active; Activity [16]: Dose-dependent effect; Activity [17]: Toxic; inhibition in vivo at 100 mg/kg [18]: 85%
